Experiments:
[1] = Rat single-pass intestinal perfusion; format: in vivo, Sprague–Dawley rats
Method: The absorption rate constant (Ka) and permeability coefficient (Peff) were calculated using the following equation: […] The single-pass intestinal perfusion studies in rats were conducted following previously established methodologies. […] Before the surgical procedure, animals were fasted overnight with water ad libitum. Rats were anesthetized via intraperitoneal administration of 20% urethane at a dosage of 6 mL/kg and subsequently positioned on a heating pad. Their normal body temperature (37.0 ± 0.5 °C) was sustained using an infrared lamp. A midline incision was made to open the abdomen, allowing for the exposure of 35–45 cm of the small intestine, along with a 10 cm segment […]. This segment was cannulated with Teflon tubing (0.42 cm in diameter) at both the proximal and distal ends, which were then secured with silk sutures. This segment was gently flushed with warmed normal saline to remove intestinal contents. Then, farrerol racemate maintained at 37 °C was perfused through the lumen of the small intestine at a flow rate of 0.2 mL/min. After a 30 min equilibration period to reach steady-state outlet concentrations, the perfusate samples were collected every 15 min for 120 min in micro-centrifuge tubes. The length of the small intestinal segment was measured following the last collection. All collected samples were stored at −20 °C. 500 μL of collected intestinal perfusion samples were placed in an EP tube and then dried with nitrogen at 37 °C. The residue was redissolved and precipitated with 200 μL of methanol by vortex-mixing for 5 min. Following centrifugation at 13,000 rpm for 10 min, the supernatant samples were analyzed using the previously validated RP-HPLC-DAD method. The chiral HPLC technique employed for the analysis of farreol enantiomers in intestinal perfusate aligned with the chromatographic procedure outlined in Section 3.4.3. This method underwent validation for parameters including linearity, range, extraction recovery, specificity, precision, and accuracy. […] The extraction recoveries of farrerol in intestinal perfusate at three different concentration levels ranged from 90.57% to 95.57%.

[2] = molecular target: T1, CYP1A2 (Homo sapiens, UniProt P05177); assay: CYP inhibition in liver microsomes (phenacetin); conditions: IC50, CYP 1A2, marker substrate phenacetin
T1 sequence (P05177 1-516): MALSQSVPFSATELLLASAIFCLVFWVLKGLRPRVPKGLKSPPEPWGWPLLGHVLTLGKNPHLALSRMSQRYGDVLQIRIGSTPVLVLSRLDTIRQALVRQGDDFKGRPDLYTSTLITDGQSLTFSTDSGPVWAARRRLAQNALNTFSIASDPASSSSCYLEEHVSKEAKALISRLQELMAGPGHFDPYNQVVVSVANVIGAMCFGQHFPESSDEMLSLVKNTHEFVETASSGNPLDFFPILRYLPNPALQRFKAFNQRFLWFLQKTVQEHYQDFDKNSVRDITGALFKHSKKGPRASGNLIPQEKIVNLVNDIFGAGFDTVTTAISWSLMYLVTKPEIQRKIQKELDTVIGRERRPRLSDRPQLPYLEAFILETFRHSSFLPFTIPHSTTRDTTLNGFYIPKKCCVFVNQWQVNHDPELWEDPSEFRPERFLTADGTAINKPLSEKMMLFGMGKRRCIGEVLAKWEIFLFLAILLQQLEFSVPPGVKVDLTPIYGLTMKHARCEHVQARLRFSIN
Method: A liver microsome working solution (20 mg/mL) contained potassium phosphate buffer (0.1 M, pH 7.4), hepatic microsomes and marker substrate solution, which phenacetin, diclofenic acid, S-mephenytoinwer, dextromethorphan, midazolam, coumarin and chlorzoxazone used as substrates for […], CYP2C9, CYP2C19, CYP2D6, CYP3A4/5, CYP2A6 and CYP2E1, respectively. In brief, 238.5 µL of liver microsome working solution was placed in a 1 mL EP tube. […] The reaction was started by injecting NADPH (1 mM), and the resulting mixture was incubated at 37 °C for 10 min. After centrifuging at 4000 rpm for 15 min, the supernatant was transferred and analyzed using LC-MS/MS to detect the corresponding metabolites. Each incubation was conducted in triplicate (n = 3).
An API 4000 LC/tandem mass spectrometry was used to analyze the concentration of metabolites of various chemical agents using a validated mode. An Atlantis T3 column (2.1 mm × 50 mm, 5 μm) was utilized, employing mobile phases consisting of a 0.1% formic acid solution (A) and a 0.1% acetonitrile formate solution (B). […] As for the detection of CYP 2E1 metabolite, the Flow composition was as follows: 0–0.30 min, 10% B; 0.30–1.30 min, 10–55% B; 1.30–1.50 min, 55–95% B; 1.50–2.00 min, 95% B; 2.00–2.01 min, 95–10% B; the low rate was 0.85 mL/min. ESI was conducted in positive ion mode. MRM was utilized to quantify each metabolite, detecting the following transitions: m/z 152.1/110 for acetaminophen, 312.1/230.0 for 4′-Hydroxydiclofenac, 235.0/150.0 for 4′-hydroxymephentoin, 258.2/199.1 for Dextrorphan, 342.1/203.0 for 1′-hydroxymidazolam, 161.1/133.1 for hydroxycoumarin, and 184.0/120.0 for 6-hydroxyclozoxadone.

[3] = Colon, farrerol racemate 66.00 μg·mL^−1
[4] = Colon, farrerol racemate 132.00 μg·mL^−1
[5] = Colon, farrerol racemate 132.00 μg·mL^−1 + verapamil
[6] = Colon, farrerol racemate 180.00 μg·mL^−1
[7] = Duodenum, farrerol racemate 66.00 μg·mL^−1
[8] = Duodenum, farrerol racemate 132.00 μg·mL^−1
[9] = Duodenum, farrerol racemate 132.00 μg·mL^−1 + verapamil
[10] = Duodenum, farrerol racemate 180.00 μg·mL^−1
[11] = Ileum, farrerol racemate 66.00 μg·mL^−1
[12] = Ileum, farrerol racemate 132.00 μg·mL^−1
[13] = Ileum, farrerol racemate 132.00 μg·mL^−1 + verapamil
[14] = Ileum, farrerol racemate 180.00 μg·mL^−1
[15] = Jejunum, farrerol racemate 66.00 μg·mL^−1
[16] = Jejunum, farrerol racemate 132.00 μg·mL^−1
[17] = Jejunum, farrerol racemate 132.00 μg·mL^−1 + verapamil
[18] = Jejunum, farrerol racemate 180.00 μg·mL^−1

Compound	Peff [1, 3]	Peff [1, 4]	Peff [1, 5]	Peff [1, 6]	Peff [1, 7]	Peff [1, 8]	Peff [1, 9]	Peff [1, 10]	Peff [1, 11]	Peff [1, 12]	Peff [1, 13]	Peff [1, 14]	Peff [1, 15]	Peff [1, 16]	Peff [1, 17]	Peff [1, 18]	IC50 [2] [nM]
Cc1c(O)c(C)c2c(c1O)C(=O)CC(c1ccc(O)cc1)O2 (single isomer, unassigned; (+)) [(+)-farrerol, 2,3-dihydro-5,7-dihydroxy-2-(4-hydroxyphenyl)-6,8-dimethyl-4-benzopyrone]	1.09 ± 0.37 ×10^−1 cm·min^−1	0.93 ± 0.09 ×10^−1 cm·min^−1	1.41 ± 0.23 ×10^−1 cm·min^−1	1.04 ± 0.12 ×10^−1 cm·min^−1	1.32 ± 0.03 ×10^−1 cm·min^−1	1.16 ± 0.11 ×10^−1 cm·min^−1	1.42 ± 0.17 ×10^−1 cm·min^−1	1.30 ± 0.14 ×10^−1 cm·min^−1	1.12 ± 0.22 ×10^−1 cm·min^−1	0.87 ± 0.08 ×10^−1 cm·min^−1	0.77 ± 0.11 ×10^−1 cm·min^−1	0.79 ± 0.04 ×10^−1 cm·min^−1	1.16 ± 0.23 ×10^−1 cm·min^−1	0.73 ± 0.03 ×10^−1 cm·min^−1	1.12 ± 0.10 ×10^−1 cm·min^−1	1.03 ± 0.06 ×10^−1 cm·min^−1	588
Cc1c(O)c(C)c2c(c1O)C(=O)CC(c1ccc(O)cc1)O2 (single isomer, unassigned; (-)) [(−)-farrerol, 2,3-dihydro-5,7-dihydroxy-2-(4-hydroxyphenyl)-6,8-dimethyl-4-benzopyrone]	1.12 ± 0.41 ×10^−1 cm·min^−1	0.95 ± 0.10 ×10^−1 cm·min^−1	1.42 ± 0.23 ×10^−1 cm·min^−1	1.12 ± 0.17 ×10^−1 cm·min^−1	1.33 ± 0.03 ×10^−1 cm·min^−1	1.17 ± 0.10 ×10^−1 cm·min^−1	1.43 ± 0.17 ×10^−1 cm·min^−1	1.33 ± 0.11 ×10^−1 cm·min^−1	1.14 ± 0.22 ×10^−1 cm·min^−1	0.89 ± 0.10 ×10^−1 cm·min^−1	0.77 ± 0.11 ×10^−1 cm·min^−1	0.78 ± 0.07 ×10^−1 cm·min^−1	1.17 ± 0.24 ×10^−1 cm·min^−1	0.74 ± 0.05 ×10^−1 cm·min^−1	1.12 ± 0.10 ×10^−1 cm·min^−1	1.07 ± 0.10 ×10^−1 cm·min^−1	1020
